Data reported in US11214578B2, “Urea/carbamates FAAH MAGL or dual FAAH/MAGL inhibitors and uses thereof” (Northeastern University, priority 2014, dated 2022).

Tests used:
Assay type in all cases: biochemical
ΔTM rat FAAH = molecular target: T1, ΔTM rat FAAH (Rattus norvegicus, UniProt P97612); test: Fluorescent assay protocol for ΔTM rat FAAH (AAMCA substrate); settings: 15 min preincubation, read-out: IC50 rFAAH
T1 construct: Preparation of Transmembrane Domain-Deleted Rat FAAH (ΔTM rFAAH); made in house; host or cells: E. coli
T1 sequence (P97612 30-579 limits assumed): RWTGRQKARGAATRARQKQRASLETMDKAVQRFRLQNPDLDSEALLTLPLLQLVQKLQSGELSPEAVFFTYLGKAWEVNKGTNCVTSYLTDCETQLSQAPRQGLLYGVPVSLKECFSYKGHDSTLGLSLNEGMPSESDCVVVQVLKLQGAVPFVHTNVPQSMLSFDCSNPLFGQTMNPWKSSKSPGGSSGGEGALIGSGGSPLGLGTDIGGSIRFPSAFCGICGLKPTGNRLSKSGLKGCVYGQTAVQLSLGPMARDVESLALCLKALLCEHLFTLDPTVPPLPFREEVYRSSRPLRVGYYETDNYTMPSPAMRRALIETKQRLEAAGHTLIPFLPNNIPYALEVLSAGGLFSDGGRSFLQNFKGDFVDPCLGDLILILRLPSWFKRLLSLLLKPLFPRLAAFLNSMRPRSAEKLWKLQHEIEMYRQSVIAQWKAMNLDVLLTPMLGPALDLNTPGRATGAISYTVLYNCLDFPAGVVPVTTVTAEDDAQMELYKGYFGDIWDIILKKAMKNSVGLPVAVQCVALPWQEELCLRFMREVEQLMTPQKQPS
Procedure: Procedure was followed as described for hMAGL, except that arachidonoyl-methyl coumarin amide (AAMCA) was used as fluorigenic substrate. […] For the screening assay, 3 concentrations (1 μM, 10 μM, and 100 μM) of test compounds, 15 μg of ΔTM rFAAH and assay buffer were pre-incubated for 15 min at 25° C. […] The fluorescence reading at the 3 hour time point (linear enzyme kinetics) was used to calculate percent inhibition based on control assays without inhibitor present. All FAAH assays were performed in triplicate for each inhibitor concentration, and IC50 values determined using Prizm software (GraphPad Software, Inc.).

Human FAAH (MBPΔTMhFAAH) = molecular target: T2, Human FAAH (MBPΔTMhFAAH) (Homo sapiens, UniProt O00519); test: Fluorescent assay protocol for hFAAH; settings: human FAAH (MBP fusion, ΔTM), procedure as for rFAAH
T2 construct: made in house; host or cells: E. coli (pMALcE4 vector)
T2 sequence (O00519 30-579 limits assumed): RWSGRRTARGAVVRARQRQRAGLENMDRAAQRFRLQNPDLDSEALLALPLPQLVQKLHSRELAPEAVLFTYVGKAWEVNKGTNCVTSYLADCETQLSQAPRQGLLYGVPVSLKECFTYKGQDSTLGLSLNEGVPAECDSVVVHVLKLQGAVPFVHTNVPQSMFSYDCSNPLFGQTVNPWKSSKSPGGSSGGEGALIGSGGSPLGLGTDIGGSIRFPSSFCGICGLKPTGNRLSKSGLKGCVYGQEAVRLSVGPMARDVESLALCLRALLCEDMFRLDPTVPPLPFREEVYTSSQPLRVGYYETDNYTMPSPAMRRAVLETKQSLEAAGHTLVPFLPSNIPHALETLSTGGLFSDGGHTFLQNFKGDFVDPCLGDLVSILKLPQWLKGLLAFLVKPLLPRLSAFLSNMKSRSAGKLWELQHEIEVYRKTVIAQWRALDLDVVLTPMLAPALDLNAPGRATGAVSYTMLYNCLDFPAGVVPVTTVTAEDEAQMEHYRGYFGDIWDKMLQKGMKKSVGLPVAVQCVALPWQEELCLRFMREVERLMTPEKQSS
Procedure: Human FAAH without putative transmembrane domain following maltose binding protein was expressed in E. coli cells using pMALcE4 vector Alapafuja et al J. Med. Chem. (2012) 55: 10074-89.
Procedure was followed as described for hMAGL, except that arachidonoyl-methyl coumarin amide (AAMCA) was used as fluorigenic substrate. Compounds were diluted in 50:50 DMSO/assay buffer (50 mM HEPES, 1 mM EDTA, 0.1% BSA, pH 7.4) so as to have a final DMSO concentration below 8% in each reaction. For the screening assay, 3 concentrations (1 μM, 10 μM, and 100 μM) of test compounds, 15 μg of ΔTM rFAAH and assay buffer were pre-incubated for 15 min at 25° C. AAMCA (20 μM, 2×Km) was added prior to incubation at 25° C. and kinetic fluorescence reading every 20 minutes (λex=360/λem=460) for 4 hours on a BioTek Synergy HT Microplate Reader (BioTek Instruments, Winooski, Vt.). The fluorescence reading at the 3 hour time point (linear enzyme kinetics) was used to calculate percent inhibition based on control assays without inhibitor present. All FAAH assays were performed in triplicate for each inhibitor concentration, and IC50 values determined using Prizm software (GraphPad Software, Inc.).
Procedure was followed as described for rFAAH.

Rat MAGL (rMAGL) = molecular target: T3, Rat MAGL (rMAGL) (Rattus norvegicus, UniProt Q8R431); test: Fluorescent assay protocol for rMAGL; settings: recombinant rat MAGL, procedure as for hMAGL; read-out: IC50 rMAGL
T3 construct: made in house; host or cells: E. coli
T3 sequence (Q8R431 1-303): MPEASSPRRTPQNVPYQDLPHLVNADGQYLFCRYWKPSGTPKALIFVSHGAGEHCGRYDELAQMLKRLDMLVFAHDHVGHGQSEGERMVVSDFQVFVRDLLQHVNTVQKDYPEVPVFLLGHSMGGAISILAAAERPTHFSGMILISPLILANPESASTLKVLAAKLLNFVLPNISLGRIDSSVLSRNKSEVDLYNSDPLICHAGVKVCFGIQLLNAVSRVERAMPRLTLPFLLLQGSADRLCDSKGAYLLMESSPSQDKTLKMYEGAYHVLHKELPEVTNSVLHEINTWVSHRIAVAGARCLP
Procedure: (§1) This medium throughput assay involved a 96-well plate format in which hMAGL activity was monitored by the hydrolysis of the substrate 7-hydroxy-6-methoxy-4-methylcoumarin ester (AHMMCE) to form the fluorescent product, coumarin. […] Upon the addition of AHMMCE, the reaction was incubated at 25° C. for 120 min; fluorescence readings were taken every 15 min at 360 nm/460 nm (λexcitation/λemission) using a Synergy HT Plate Reader (Bio-Tek, Winooski, Vt.). […] External standards were used to convert relative fluorescence units to the amount of 4-methylcoumarin formed. All MAGL assays were performed in triplicate for each inhibitor concentration, and IC50 values were calculated using Prizm software (GraphPad Software, Inc., San Diego, Calif.).
Procedure was followed as described for hMAGL.

Human MAGL (hMAGL) = molecular target: T4, Human MAGL (hMAGL) (Homo sapiens, UniProt Q99685); test: Fluorescent assay protocol for hMAGL (AHMMCE substrate); settings: recombinant human MAGL, AHMMCE substrate, 15 min preincubation; read-out: IC50 hMAGL
T4 construct: hexahistidine; made in house; host or cells: E. coli
T4 sequence (Q99685 1-303): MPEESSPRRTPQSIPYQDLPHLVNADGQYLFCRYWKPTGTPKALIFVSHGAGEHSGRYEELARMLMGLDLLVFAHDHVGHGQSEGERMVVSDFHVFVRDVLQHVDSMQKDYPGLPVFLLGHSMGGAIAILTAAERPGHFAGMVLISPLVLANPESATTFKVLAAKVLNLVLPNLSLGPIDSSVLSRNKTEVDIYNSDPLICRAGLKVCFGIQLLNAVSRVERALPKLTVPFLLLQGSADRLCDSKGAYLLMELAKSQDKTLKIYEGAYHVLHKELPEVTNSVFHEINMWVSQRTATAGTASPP
Procedure: as §1

Structure (SMILES) | IC50 (ΔTM rat FAAH) [nM] | IC50 (Human FAAH (MBPΔTMhFAAH)) [nM] | IC50 (Rat MAGL (rMAGL)) [nM] | IC50 (Human MAGL (hMAGL)) [nM]
O=C(Oc1cccc(-c2cccnc2)c1)N1CC(OCc2ccc(Cl)cc2)C1 [Example 80, 3-(Pyridin-3-yl)phenyl 3-(4-chlorobenzyloxy)azetidine-1-carboxylate] | 10 to 100 | 10 to 100 | > 1000 | > 1000
N#Cc1cccc(OC(=O)N2CC(OCc3ccc(Cl)cc3)C2)c1 [Example 74, 3-Cyanophenyl 3-(4-chlorobenzyloxy)azetidine-1-carboxylate] | 10 to 100 | 10 to 100 | > 1000 | 110 to 1000
O=C(Nc1ccccc1)N1CC(OCc2ccc(Cl)cc2)C1 [Example 81, 3-(4-Chlorobenzyloxy)-N-phenylazetidine-1-carboxamide] | 110 to 1000 | 110 to 1000 | > 1000 | > 1000
CC(C)C(c1ccccc1)N1CCN(C(=O)Oc2cccc(C#N)c2)CC1 (stereo not drawn) [Example 35, 3-Cyanophenyl 4-(2-methyl-1-phenylpropyl)piperazine-1-carboxylate] | > 1000 | > 1000 |  | > 1000
N#Cc1cccc(OC(=O)N2CCN(C3c4ccccc4-c4ccccc43)CC2)c1 [Example 41, 3-cyanophenyl 4-(9H-fluoren-9-yl)piperazine-1-carboxylate] | 110 to 1000 | 110 to 1000 |  | 
N#Cc1cccc(OC(=O)N2CCN(C(c3ccccc3)C3CCCC3)CC2)c1 (stereo not drawn) [Example 37, 3-cyanophenyl 4-(cyclopentyl(phenyl)methyl)piperazine-1-carboxylate] | 10 to 100 | 10 to 100 |  | 
N#Cc1cccc(OC(=O)N2CCN(C(c3ccccc3)c3ccccc3)CC2)c1 [Example 44, 3-Cyanophenyl 4-benzhydrylpiperazine-1-carboxylate] | 10 to 100 | 10 to 100 |  | 
N#Cc1cccc(OC(=O)N2CCN(C(c3ccc(F)cc3)c3ccc(F)cc3)CC2)c1 [Example 40, 3-cyanophenyl 4-(bis(4-fluorophenyl)methyl)piperazine-1-carboxylate] | > 1000 | > 1000 |  | 

More lines, now with the values ahead:

IC50 (ΔTM rat FAAH) [nM] | IC50 (Human FAAH (MBPΔTMhFAAH)) [nM] | IC50 (Rat MAGL (rMAGL)) [nM] | IC50 (Human MAGL (hMAGL)) [nM] | Structure (SMILES)
10 to 100 | 10 to 100 | 110 to 1000 | 110 to 1000 | O=C(Oc1cccc(Br)c1)N1CC(OCc2ccc(Cl)cc2)C1 [Example 76, 3-Bromophenyl 3-(4-chlorobenzyloxy)azetidine-1-carboxylate]
10 to 100 | 10 to 100 | > 1000 | > 1000 | C[C@H]1CN(Cc2cccc(Oc3ccccc3)c2)CCN1C(=O)Nc1cccc(-c2cccc(C(N)=O)c2)c1 [Example 4, (S)—N-(3′-carbamoyl-[1,1′-biphenyl]-3-yl)-2-methyl-4-(3-phenoxybenzyl)piperazine-1-carboxamide]
> 1000 | > 1000 | > 1000 | > 1000 | C[C@H]1CN(Cc2cccc(Oc3ccccc3)c2)CCN1C(=O)Nc1cncc(-c2cccc(C#N)c2)c1 [Example 5, (S)—N-(5-(3-cyanophenyl)pyridin-3-yl)-2-methyl-4-(3-phenoxybenzyl)piperazine-1-carboxamide]
> 1000 | > 1000 |  |  | N#Cc1ccc(F)c(OC(=O)N2CCC(C(c3ccccc3)c3ccccc3)CC2)c1 [Example 49, 5-cyano-2-fluorophenyl 4-benzhydrylpiperidine-1-carboxylate]
> 1000 | > 1000 | 10 to 100 | 10 to 100 | CC1CN(c2ccccc2)CCN1C(=O)Oc1cccc(N2CCS(=O)(=O)CC2)c1 (stereo not drawn) [Example 73, 3-(1,1-dioxidothiomorpholino)phenyl 2-methyl-4-phenylpiperazine-1-carboxylate]
110 to 1000 | 110 to 1000 | 10 to 100 | 10 to 100 | O=C(Oc1cccc(N2CCS(=O)(=O)CC2)c1)N1CCN(c2ccccc2)CC1 [Example 69, 3-(1,1-dioxidothiomorpholino)phenyl 4-phenylpiperazine-1-carboxylate]
110 to 1000 | 10 to 100 | 10 to 100 | 10 to 100 | N#Cc1cccc(OC(=O)N2CCC(S(=O)(=O)c3ccc(Br)cc3)CC2)c1 [Example 59, 3-Cyanophenyl 4-(4-bromophenylsulfonyl)piperidine-1-carboxylate]
> 1000 | > 1000 |  |  | N#Cc1cc(O)cc(OC(=O)N2CCC(C(c3ccccc3)c3ccccc3)CC2)c1 [Example 50, 3-cyano-5-hydroxyphenyl 4-benzhydrylpiperidine-1-carboxylate]
> 1000 | 110 to 1000 | > 1000 | > 1000 | O=C(N1CCN(C(c2ccccc2)c2ccccc2)CC1)n1cnc(-c2ccccc2)c1 [Example 30, (4-benzhydrylpiperazin-1-yl)(4-phenyl-1H-imidazol-1-yl)methanone]
> 1000 | > 1000 |  |  | N#Cc1cccc(OC(=O)N2CCC(OC(c3ccccc3)c3ccccc3)CC2)c1 [Example 58, 3-cyanophenyl 4-(benzhydryloxy)piperidine-1-carboxylate]
